Assay results from ChEMBL document CHEMBL3351485 (ACS Med Chem Lett, 2014).
Calls of active or inactive are those of the source. The calls are words filed in the database; no cut-off is given here.

Assays:
[1] = biological target: T1, Sodium- and chloride-dependent GABA transporter 1 (Homo sapiens, UniProt P30531); experiment: Inhibition of human GAT1 transfected in CHO cells assessed as [3H]GABA uptake at 100 uM after 20 mins by liquid scintillation counting analysis; format: cell-based
Target sequence in this assay (P30531 whole entry, looked up): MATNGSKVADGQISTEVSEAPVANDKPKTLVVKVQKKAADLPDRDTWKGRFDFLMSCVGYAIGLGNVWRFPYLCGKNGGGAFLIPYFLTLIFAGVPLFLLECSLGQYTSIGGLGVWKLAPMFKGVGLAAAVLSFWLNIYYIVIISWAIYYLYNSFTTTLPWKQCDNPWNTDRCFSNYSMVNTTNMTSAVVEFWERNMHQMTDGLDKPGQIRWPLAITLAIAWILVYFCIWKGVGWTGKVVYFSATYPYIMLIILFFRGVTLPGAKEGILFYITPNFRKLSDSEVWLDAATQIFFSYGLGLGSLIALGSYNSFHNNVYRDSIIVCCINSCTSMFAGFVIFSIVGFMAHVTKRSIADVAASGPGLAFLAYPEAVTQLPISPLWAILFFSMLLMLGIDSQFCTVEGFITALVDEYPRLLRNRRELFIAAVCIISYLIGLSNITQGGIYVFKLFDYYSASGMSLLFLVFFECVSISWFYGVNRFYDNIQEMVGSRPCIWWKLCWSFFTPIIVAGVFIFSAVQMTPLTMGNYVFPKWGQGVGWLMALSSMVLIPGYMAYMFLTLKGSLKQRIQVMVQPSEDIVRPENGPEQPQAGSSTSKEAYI

[2] = biological target: T2, Sodium- and chloride-dependent GABA transporter 2 (Homo sapiens) (UniProt Q9NSD5); experiment: Inhibition of human GAT2 transfected in CHO cells assessed as [3H]GABA uptake at 100 uM after 20 mins by liquid scintillation counting analysis; format: cell-based
T2 sequence (whole entry): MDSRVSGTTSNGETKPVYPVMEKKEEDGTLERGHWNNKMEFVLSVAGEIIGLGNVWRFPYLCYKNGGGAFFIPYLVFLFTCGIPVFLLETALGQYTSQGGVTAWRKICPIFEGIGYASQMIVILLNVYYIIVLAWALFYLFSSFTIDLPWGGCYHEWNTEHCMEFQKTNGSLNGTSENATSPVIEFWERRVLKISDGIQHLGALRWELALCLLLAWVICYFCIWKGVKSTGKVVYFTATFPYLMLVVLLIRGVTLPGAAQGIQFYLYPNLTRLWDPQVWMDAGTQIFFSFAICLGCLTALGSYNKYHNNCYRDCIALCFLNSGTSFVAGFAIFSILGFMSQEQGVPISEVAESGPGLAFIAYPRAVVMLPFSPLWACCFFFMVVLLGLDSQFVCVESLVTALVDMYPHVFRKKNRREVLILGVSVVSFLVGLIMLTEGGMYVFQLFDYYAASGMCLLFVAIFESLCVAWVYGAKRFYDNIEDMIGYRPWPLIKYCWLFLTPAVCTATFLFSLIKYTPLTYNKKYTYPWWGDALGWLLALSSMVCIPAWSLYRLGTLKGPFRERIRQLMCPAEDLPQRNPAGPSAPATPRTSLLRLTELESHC

[3] = biological target: T3, Sodium- and chloride-dependent GABA transporter 3 (Homo sapiens) (UniProt P48066); details: CHO, 100 uM
T3 sequence (whole entry): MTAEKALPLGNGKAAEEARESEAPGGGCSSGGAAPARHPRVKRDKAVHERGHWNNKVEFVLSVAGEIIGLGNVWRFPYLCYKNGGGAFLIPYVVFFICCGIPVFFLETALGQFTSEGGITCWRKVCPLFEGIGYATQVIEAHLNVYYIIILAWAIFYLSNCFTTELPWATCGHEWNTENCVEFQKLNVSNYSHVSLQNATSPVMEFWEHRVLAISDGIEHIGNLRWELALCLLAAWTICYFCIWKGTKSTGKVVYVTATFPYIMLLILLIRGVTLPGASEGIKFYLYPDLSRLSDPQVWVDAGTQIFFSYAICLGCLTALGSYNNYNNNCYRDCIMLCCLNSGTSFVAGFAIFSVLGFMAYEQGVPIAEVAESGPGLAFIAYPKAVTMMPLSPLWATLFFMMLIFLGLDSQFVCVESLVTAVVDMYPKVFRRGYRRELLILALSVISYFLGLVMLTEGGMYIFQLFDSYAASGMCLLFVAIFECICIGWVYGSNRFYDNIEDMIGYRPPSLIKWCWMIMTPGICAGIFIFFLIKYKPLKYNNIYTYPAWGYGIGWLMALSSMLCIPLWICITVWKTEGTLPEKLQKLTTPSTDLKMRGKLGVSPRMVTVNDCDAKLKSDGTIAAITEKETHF
Description: Inhibition of human GAT3 transfected in CHO cells assessed as [3H]GABA uptake at 100 uM after 20 mins by liquid scintillation counting analysis

[4] = biological target: T4, Sodium- and chloride-dependent betaine transporter (Homo sapiens) (UniProt P48065); experiment: Inhibition of human BGT1 transfected in CHO cells assessed as [3H]GABA uptake at 100 uM after 20 mins by liquid scintillation counting analysis; format: cell-based
T4 sequence (whole entry): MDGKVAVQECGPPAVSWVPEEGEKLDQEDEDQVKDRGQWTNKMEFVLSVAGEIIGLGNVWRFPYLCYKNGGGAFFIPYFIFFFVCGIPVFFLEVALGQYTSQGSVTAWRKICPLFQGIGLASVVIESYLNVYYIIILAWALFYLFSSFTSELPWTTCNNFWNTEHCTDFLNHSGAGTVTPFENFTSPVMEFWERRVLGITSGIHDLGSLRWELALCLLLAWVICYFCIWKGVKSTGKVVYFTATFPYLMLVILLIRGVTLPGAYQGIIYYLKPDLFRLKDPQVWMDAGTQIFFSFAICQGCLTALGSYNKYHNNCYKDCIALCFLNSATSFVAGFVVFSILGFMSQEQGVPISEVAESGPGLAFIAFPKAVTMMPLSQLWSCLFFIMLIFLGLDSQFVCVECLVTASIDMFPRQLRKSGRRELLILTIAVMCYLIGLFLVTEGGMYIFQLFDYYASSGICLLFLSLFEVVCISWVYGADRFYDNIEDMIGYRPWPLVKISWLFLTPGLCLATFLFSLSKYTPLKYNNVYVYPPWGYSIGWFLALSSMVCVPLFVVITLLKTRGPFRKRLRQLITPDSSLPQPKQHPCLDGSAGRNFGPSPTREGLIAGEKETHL

[5] = biological target: T1, Sodium- and chloride-dependent GABA transporter 1; experiment: Inhibition of human GAT1 transfected in CHO cells assessed as [3H]GABA uptake after 20 mins by liquid scintillation counting analysis; format: cell-based
Target sequence in this assay (P30531 whole entry): as the sequence (P30531 whole entry, looked up) above

[6] = biological target: T5, Sodium- and chloride-dependent GABA transporter 2 (Homo sapiens, UniProt Q9NSD5); experiment: Inhibition of human GAT2 transfected in CHO cells assessed as [3H]GABA uptake after 20 mins by liquid scintillation counting analysis; format: cell-based
T5 sequence (Q9NSD5 whole entry): T2 sequence (whole entry)

[7] = biological target: T6, Sodium- and chloride-dependent GABA transporter 3 (Homo sapiens, UniProt P48066); experiment: Inhibition of human GAT3 transfected in CHO cells assessed as [3H]GABA uptake after 20 mins by liquid scintillation counting analysis; format: cell-based
T6 sequence (P48066 whole entry): T3 sequence (whole entry)

[8] = biological target: T7, Sodium- and chloride-dependent betaine transporter (Homo sapiens, UniProt P48065); experiment: Inhibition of human BGT1 transfected in CHO cells assessed as [3H]GABA uptake after 20 mins by liquid scintillation counting analysis; format: cell-based
T7 sequence (P48065 whole entry): T4 sequence (whole entry)

Compound	inhibition [1]	inhibition [2]	inhibition [3]	inhibition [4]	IC50 [5] [µM]	IC50 [7] [µM]	IC50 [8] [µM]	IC50 [6] [µM]
COc1ccc(C(OCCN2CCC[C@H](C(=O)O)C2)(c2ccc(OC)cc2)c2ccc(OC)cc2)cc1	–	–	–	–	> 100	–	–	–
COc1ccccc1C1(O)CCN(CCCn2c3ccccc3c3ccccc32)CC1	–	–	–	–	11.4	8.92	–	6.2
NCCC(=O)O [BETA-ALANINE]	–	–	–	–	–	–	–	> 100

Second part, led by results:

inhibition [1]	inhibition [2]	inhibition [3]	inhibition [4]	IC50 [5] [µM]	IC50 [7] [µM]	IC50 [8] [µM]	Compound	IC50 [6] [µM]
inactive	inactive	inactive	63.9%	–	–	–	N[C@@]12CC[C@@H](C(=O)O)[C@@H]1C2	–
–	–	Active	Active	> 100	13.9	5.48	N[C@H]1C[C@H]1CC(=O)O	36.9
12.2%	29%	48.2%	97.6%	> 100	76.3	0.59	N[C@@]12CC[C@H](C(=O)O)[C@@H]1C2	> 100
